Here are results for 6 cell lines from the supplement of paper PMC10307832.

Common to all, as to assay: relative viability (nuclei count vs DMSO), 5 days (fraction); higher = more cells survive
Compound in the experiment “Bleomycin + Tozasertib”: CC1=C(N=C(N=C1N)[C@H](CC(=O)N)NC[C@@H](C(=O)N)N)C(=O)N[C@@H]([C@H](C2=CN=CN2)OC3C(C(C(C(O3)CO)O)O)OC4C(C(C(C(O4)CO)O)OC(=O)N)O)C(=O)N[C@H](C)[C@H]([C@H](C)C(=O)N[C@@H]([C@@H](C)O)C(=O)NCCC5=NC(=CS5)C6=NC(=CS6)C(=O)NCCC[S+](C)C)O [Bleomycin] + Cc1cc(Nc2cc(N3CCN(C)CC3)nc(Sc3ccc(NC(=O)C4CC4)cc3)n2)n[nH]1 [Tozasertib] (partner 0.1 µM)
The conditions noted are these: main component drawn. The essentials:
(§1)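 Relative viability was taken as the ratio of nuclei in treated wells to nuclei in vehicle wells. Lung cancer cell lines in 1536-well plates received compounds by pin tool one day after seeding, either one drug alone or a fixed anchor-drug dose plus five library-drug doses (not always all listed) in √10 steps. Nuclei were counted on 4× images after 5 days of treatment, and values are medians of duplicate plates.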

Compound in the experiment “Etoposide + Bortezomib”: COc1cc([C@@H]2c3cc4c(cc3[C@@H](O[C@@H]3O[C@@H]5CO[C@@H](C)O[C@H]5[C@H](O)[C@H]3O)[C@H]3COC(=O)[C@H]23)OCO4)cc(OC)c1O [Etoposide] + CC(C)C[C@H](NC(=O)[C@H](Cc1ccccc1)NC(=O)c1cnccn1)B(O)O [Bortezomib] (partner 0.002 µM)
The essentials: as §1

Compound in the experiment “Etoposide + Foretinib”: COc1cc([C@@H]2c3cc4c(cc3[C@@H](O[C@@H]3O[C@@H]5CO[C@@H](C)O[C@H]5[C@H](O)[C@H]3O)[C@H]3COC(=O)[C@H]23)OCO4)cc(OC)c1O [Etoposide] + COc1cc2c(Oc3ccc(NC(=O)C4(C(=O)Nc5ccc(F)cc5)CC4)cc3F)ccnc2cc1OCCCN1CCOCC1 [Foretinib] (partner 0.25 µM)
The essentials:
as §1

Compound in the experiment “Etoposide + Linsitinib”: COc1cc([C@@H]2c3cc4c(cc3[C@@H](O[C@@H]3O[C@@H]5CO[C@@H](C)O[C@H]5[C@H](O)[C@H]3O)[C@H]3COC(=O)[C@H]23)OCO4)cc(OC)c1O [Etoposide] + C[C@]1(O)C[C@@H](c2nc(-c3ccc4ccc(-c5ccccc5)nc4c3)c3c(N)nccn32)C1 [Linsitinib] (partner 1 µM)
Summed up: as §1

Take 201T: the relative viability was 0.874 in the experiment with Bleomycin + Tozasertib (first compound 0.01 µM); 0.943 in the experiment with Bleomycin + Tozasertib (first compound 0.03162 µM); 0.894 in the experiment with Bleomycin + Tozasertib (first compound 0.1 µM); 0.642 in the experiment with Bleomycin + Tozasertib (first compound 0.3162 µM); 0.548 with Bleomycin + Tozasertib (first compound 1 µM); 1.04 with Etoposide + Bortezomib (first compound 0.01 µM). Further, the relative viability in the experiment with Etoposide + Bortezomib (first compound 0.03162 µM) amounted to 1.1; with Etoposide + Bortezomib (first compound 0.1 µM) it was 1.01; with Etoposide + Bortezomib (first compound 0.3162 µM), 1.04; with Etoposide + Bortezomib (first compound 1 µM) it was 0.765; with Etoposide + Foretinib (first compound 0.01 µM), 0.981; in the experiment with Etoposide + Foretinib (first compound 0.03162 µM), 0.931. The relative viability with Etoposide + Foretinib (first compound 0.1 µM) came to 1.1; with Etoposide + Foretinib (first compound 0.3162 µM), 0.778; with Etoposide + Foretinib (first compound 1 µM), 0.425; with Etoposide + Linsitinib (first compound 0.01 µM) it was 1.12; with Etoposide + Linsitinib (first compound 0.03162 µM), 1.04; in the experiment with Etoposide + Linsitinib (first compound 0.1 µM), 0.899. In addition, the figures for the relative viability with Etoposide + Linsitinib (first compound 0.3162 µM) and in the experiment with Etoposide + Linsitinib (first compound 1 µM) were 1 and 0.745, respectively.

For the cell line NCI-H2347, the relative viability with Bleomycin + Tozasertib (first compound 0.01 µM) is 0.451; with Bleomycin + Tozasertib (first compound 0.03162 µM) it was 0.44; in the experiment with Bleomycin + Tozasertib (first compound 0.1 µM), 0.52; in the experiment with Bleomycin + Tozasertib (first compound 0.3162 µM), 0.221; with Bleomycin + Tozasertib (first compound 1 µM), 0.413; with Etoposide + Bortezomib (first compound 0.01 µM) it was 1.06. In addition, the relative viability turned out to be 1.32 with Etoposide + Bortezomib (first compound 0.03162 µM); 0.716 with Etoposide + Bortezomib (first compound 0.1 µM); 0.572 with Etoposide + Bortezomib (first compound 0.3162 µM); 0.515 with Etoposide + Bortezomib (first compound 1 µM); 0.844 in the experiment with Etoposide + Foretinib (first compound 0.01 µM); 0.981 in the experiment with Etoposide + Foretinib (first compound 0.03162 µM). In addition, the relative viability is 0.515 in the experiment with Etoposide + Foretinib (first compound 0.1 µM); 0.59 with Etoposide + Foretinib (first compound 0.3162 µM); 0.387 in the experiment with Etoposide + Foretinib (first compound 1 µM); 1.23 in the experiment with Etoposide + Linsitinib (first compound 0.01 µM); 1.08 with Etoposide + Linsitinib (first compound 0.03162 µM); 0.592 with Etoposide + Linsitinib (first compound 0.1 µM). The relative viability with Etoposide + Linsitinib (first compound 0.3162 µM) is 0.523; with Etoposide + Linsitinib (first compound 1 µM) it was 0.408.

For the cell line LOU-NH91, the relative viability in the experiment with Bleomycin + Tozasertib (first compound 0.01 µM) is 0.504; in the experiment with Bleomycin + Tozasertib (first compound 0.03162 µM), 0.289; with Bleomycin + Tozasertib (first compound 0.1 µM), 0.404; with Bleomycin + Tozasertib (first compound 0.3162 µM), 0.323; in the experiment with Bleomycin + Tozasertib (first compound 1 µM), 0.274; with Etoposide + Bortezomib (first compound 0.01 µM), 0.563. The relative viability with Etoposide + Bortezomib (first compound 0.03162 µM) was determined as 0.502; with Etoposide + Bortezomib (first compound 0.1 µM) it was 0.498; in the experiment with Etoposide + Bortezomib (first compound 0.3162 µM), 0.435; with Etoposide + Bortezomib (first compound 1 µM), 0.375; with Etoposide + Foretinib (first compound 0.01 µM) it was 0.919; with Etoposide + Foretinib (first compound 0.03162 µM), 0.949. The relative viability with Etoposide + Foretinib (first compound 0.1 µM) came out at 0.745; with Etoposide + Foretinib (first compound 0.3162 µM), 0.795; with Etoposide + Foretinib (first compound 1 µM), 0.406; with Etoposide + Linsitinib (first compound 0.01 µM) it was 0.892; with Etoposide + Linsitinib (first compound 0.03162 µM), 0.943; with Etoposide + Linsitinib (first compound 0.1 µM) it was 0.702. Besides, the values for the relative viability with Etoposide + Linsitinib (first compound 0.3162 µM) and with Etoposide + Linsitinib (first compound 1 µM) were 0.728 and 0.538, respectively.

On to NCI-H2085, for which the relative viability with Bleomycin + Tozasertib (first compound 0.01 µM) came to 0.758; with Bleomycin + Tozasertib (first compound 0.03162 µM) it was 0.74; in the experiment with Bleomycin + Tozasertib (first compound 0.1 µM) it was 0.783; in the experiment with Bleomycin + Tozasertib (first compound 0.3162 µM), 0.539; with Bleomycin + Tozasertib (first compound 1 µM), 0.428; with Etoposide + Bortezomib (first compound 0.01 µM), 1.08. Moreover, the relative viability turned out to be 1.08 with Etoposide + Bortezomib (first compound 0.03162 µM); 0.953 with Etoposide + Bortezomib (first compound 0.1 µM); 0.674 in the experiment with Etoposide + Bortezomib (first compound 0.3162 µM); 0.354 with Etoposide + Bortezomib (first compound 1 µM); 0.781 with Etoposide + Foretinib (first compound 0.01 µM); 0.897 with Etoposide + Foretinib (first compound 0.03162 µM). The relative viability was 0.88 in the experiment with Etoposide + Foretinib (first compound 0.1 µM); 0.667 with Etoposide + Foretinib (first compound 0.3162 µM); 0.33 with Etoposide + Foretinib (first compound 1 µM); 0.8 with Etoposide + Linsitinib (first compound 0.01 µM); 0.883 with Etoposide + Linsitinib (first compound 0.03162 µM); 0.859 in the experiment with Etoposide + Linsitinib (first compound 0.1 µM). The relative viability with Etoposide + Linsitinib (first compound 0.3162 µM) was 0.51; with Etoposide + Linsitinib (first compound 1 µM), 0.279.

As for COR-L23, the relative viability with Bleomycin + Tozasertib (first compound 0.01 µM) was determined as 0.169; with Bleomycin + Tozasertib (first compound 0.03162 µM) it was 0.156; in the experiment with Bleomycin + Tozasertib (first compound 0.1 µM) it was 0.128; with Bleomycin + Tozasertib (first compound 0.3162 µM) it was 0.102; with Bleomycin + Tozasertib (first compound 1 µM) it was 0.104; in the experiment with Etoposide + Bortezomib (first compound 0.01 µM), 0.962. For the same cell line, the relative viability worked out at 0.937 with Etoposide + Bortezomib (first compound 0.03162 µM); 0.804 with Etoposide + Bortezomib (first compound 0.1 µM); 0.693 in the experiment with Etoposide + Bortezomib (first compound 0.3162 µM); 0.342 with Etoposide + Bortezomib (first compound 1 µM); 0.954 with Etoposide + Foretinib (first compound 0.01 µM); 1.14 with Etoposide + Foretinib (first compound 0.03162 µM). For the same cell line, the relative viability was 1 with Etoposide + Foretinib (first compound 0.1 µM); 0.744 with Etoposide + Foretinib (first compound 0.3162 µM); 0.33 in the experiment with Etoposide + Foretinib (first compound 1 µM); 0.818 with Etoposide + Linsitinib (first compound 0.01 µM); 0.841 with Etoposide + Linsitinib (first compound 0.03162 µM); 0.942 in the experiment with Etoposide + Linsitinib (first compound 0.1 µM). Further, the relative viability in the experiment with Etoposide + Linsitinib (first compound 0.3162 µM) stood at 0.578; with Etoposide + Linsitinib (first compound 1 µM), 0.237.

Take BEN: the relative viability in the experiment with Bleomycin + Tozasertib (first compound 0.01 µM) came out at 0.487; in the experiment with Bleomycin + Tozasertib (first compound 0.03162 µM) it was 0.519; with Bleomycin + Tozasertib (first compound 0.1 µM), 0.452; with Bleomycin + Tozasertib (first compound 0.3162 µM) it was 0.431; in the experiment with Bleomycin + Tozasertib (first compound 1 µM), 0.475; in the experiment with Etoposide + Bortezomib (first compound 0.01 µM), 0.728. Moreover, the relative viability with Etoposide + Bortezomib (first compound 0.03162 µM) came to 0.869; with Etoposide + Bortezomib (first compound 0.3162 µM) it was 0.565; with Etoposide + Bortezomib (first compound 1 µM), 0.6; with Etoposide + Foretinib (first compound 0.01 µM), 0.564; in the experiment with Etoposide + Foretinib (first compound 0.03162 µM), 0.884; in the experiment with Etoposide + Foretinib (first compound 0.3162 µM) it was 0.657. For the same cell line, the relative viability with Etoposide + Foretinib (first compound 1 µM) was 0.725; in the experiment with Etoposide + Linsitinib (first compound 0.01 µM), 0.695; in the experiment with Etoposide + Linsitinib (first compound 0.03162 µM), 0.983; with Etoposide + Linsitinib (first compound 0.3162 µM) it was 0.78; with Etoposide + Linsitinib (first compound 1 µM), 0.681.
